{
  "source": "patent US20160361314A1",
  "about": "“COMBINATION OF AN ALK INHIBITOR AND A CDK INHIBITOR FOR THE TREATMENT OF CELL PROLIFERATIVE DISEASES” (NOVARTIS AG, priority 2013, published 2016)",
  "key": {"[1]": {"system": "human neuroblastoma SH-SY5Y (F1174L ALK mutation) xenografts", "settings": "CB17 SCID mice; A1 50 mg/kg, B 250 mg/kg reduced to 187.5 mg/kg on day 5; p.o. gavage", "protocol": "Enhancement of efficacy studies were conducted in vivo on CB17 SCID mice against human neuroblastoma SH-SY5Y (bearing an F1174L ALK mutation) xenografts.\nCB17 scid female mice (Taconic Farms) were used to propagate subcutaneously implanted neuroblastoma tumors. Tumor diameters were measured twice per week with electronic calipers, and tumor volumes were calculated with the spheroid formula, (p/6)×d3, where d represents mean diameter. […] Mice were euthanized when tumor volume exceeded 3000 mm^3 or at the study conclusion at 7 weeks. A mixed-effects linear model was used to assess tumor volume over time between treatment and vehicle groups, controlling for tumor size at enrollment. Event-free survival probabilities were estimated using the Kaplan-Meier method and survival curves were compared using the log-rank test (SAS 9.3 and Stata 12.1). An event was defined as time to tumor volume ≧3000 mm^3, and tumor volumes after week 7 were censored. Mice were maintained under protocols and conditions approved by our institutional animal care and use committee."}, "[2]": {"system": "SKNAS neuroblastoma cells (WT)", "experiment": "xCELLigence in vitro growth inhibition (IC50)", "assay_type": "cell-based", "settings": "Homo sapiens, SK-N-AS, 72 hours, single agent", "description": "(§1) In vitro inhibitory activity was determined in five (5) neuroblastoma cell lines with a 96-well Real-Time Cell Electronic Sensing xCELLigence system (ACEA, San Diego, Calif.) which measures a “cell index”. Cell index is derived from alterations in electrical impedance as cells interact with the biocompatible microelectrode surface in each well to measure substrate adherent proliferation. Depending on the growth kinetics, the following cell densities were plated per well: NB1643: 20,000; SHSY5Y: 6,000; SKBE2C:10,000; NBEBC1: 11,000; NB1691: 30,000. After 24 hours, the plated cells were treated in triplicate with the test compound, each dose as indicated or with DMSO vehicle control. […] At 72 hours after drug exposure, the cell index was recorded.\n(§2) The IC50 was calculated using GraphPad Prism 5.0 four parameter variable slope fitting."}, "[3]": {"system": "SHSY5Y neuroblastoma cells (F1174L)", "experiment": "xCELLigence in vitro growth inhibition and Chou-Talalay combination index", "assay_type": "cell-based", "settings": "Homo sapiens, SH-SY5Y, single agent", "description": "The concentration dependence of the anti-proliferation effect for both combination partners, first alone and then in combination were measured using the xCELLigence system. CI for each of the treatments was computed by CalcuSyn v2 software (Biosoft, MO).\nIn vitro inhibitory activity was determined in five (5) neuroblastoma cell lines with a 96-well Real-Time Cell Electronic Sensing xCELLigence system (ACEA, San Diego, Calif.) which measures a “cell index”. Cell index is derived from alterations in electrical impedance as cells interact with the biocompatible microelectrode surface in each well to measure substrate adherent proliferation. […] After 24 hours, the plated cells were treated in triplicate with the test compound, each dose as indicated or with DMSO vehicle control. […] At 72 hours after drug exposure, the cell index was recorded.\nThe IC50 was calculated using GraphPad Prism 5.0 four parameter variable slope fitting. These values were used in dosing of the combination study which follows.\n(§3) Drug combination effects and quantification of synergy were determined using the Chou-Talalay combination index method (Trends Pharmacol Sci 4, 450-454) and CalcuSyn v2 software (Biosoft, MO) in four neuroblastoma cell lines. Cells were plated and in vitro proliferation was measured using the xCELLigence system as described above.\n(§4) The anti-proliferation potency of each individual agent was estimated by the median-effect dose, Dm. […] Fa=0 is determined based on DMSO control by the dose, and Fa=1 is a full response (no viable cells left) and. • Fu: fraction unaffected by dose where fu=1−fa.\nThe effect of combination drug effects was determined utilizing the combination index (CI) as defined by Chou according to the following equation:\nwhere (Dx)1 and (Dx)2 are the concentrations of compounds D1 and D2 needed to produce a given level of anti-proliferative effect when used individually, whereas (D)1 and (O)2 are their concentrations that produce the same anti-proliferative effect when used in combination. The combination index is a quantitative measure of drug interaction defined as an additive effect (CI=1), antagonism (CI>1), or synergy (CI<1). Typically, a CI range, as used herein, is used to assess synergy. A combination index of 0.9-1.1 indicates additive interaction, values below 0.9 indicate synergism, and values over 1.1 indicate antagonism. The follow is a description of the CI ranges: • <0.1+++++ Very strong synergism • 0.1-0.3++++ Strong synergism • 0.3-0.7+++ Synergism • 0.7-0.85++ Moderate synergism • 0.85-0.90+ Slight synergism • 0.90-1.10± Nearly additive • 1.10-1.20− Slight antagonism • 1.20-1.45−− Moderate antagonism\nThe combination index was used to assess the Dose-Reduction Index (DRI) (Chou and Chou, 1988), where:\nCI=(D)1/(Dx)1+(D)2/Dx)2=1/(DRI)1+1/(DRI)2 […]"}, "[4]": {"system": "NBEBC1 neuroblastoma cells (WT)", "experiment": "xCELLigence in vitro growth inhibition and Chou-Talalay combination index", "assay_type": "cell-based", "settings": "Homo sapiens, Neuroblastoma cell, single agent"}, "[5]": {"system": "NB-1643 human neuroblastoma cells", "experiment": "Loewe additivity (CHALICE) synergy screen, CellTiter-Glo viability, 7x7 dose matrix", "assay_type": "cell-based", "settings": "NB-1643 (R1275Q), Table 2; for Max Combo Effect: in % (unit assumed)", "protocol": "The synergistic interaction of drug combinations were assessed based on the Loewe Additivity Model using Chalice software [CombinatoRx, Cambridge Mass.]). […] 27:659-66. The software compares the response (% inhibition or % reduction of cell viability) of drug treatment from a combination of two agents to the response of the agents acting alone, against the drug-with-itself dose-additive reference model (the Loewe Additivity Model). Deviations from dose additives can be assessed numerically with a “synergy score” which quantifies the overall strength of combination effect. A synergy score >0 indicates a synergistic combination. In order to ensure only strongly synergistic combinations were selected, the acceptance criteria were set at a higher level. Strongly synergistic combinations were defined as having both a synergy score >2, a synergy score that is twice as large as the background (non-synergy) model would predict, and a maximum efficacy of >100, a value equivalent to stasis, as determined from the growth inhibition calculation.\nAfter treatment, cell viabilty (quantity of viable cells) for each test mixtures were determined by the CellTiter-Glo® (CTG) luminescent cell viability assay (Promega) described in the Assay section, infra. […] The response to treatment (% reduction of cell viability) was analyzed using Chalice software [CombinatoRx, Cambridge Mass.]). Data evaluation and graph generation were performed using Microsoft Excel software and Chalice software.\nThe combinations were tested in duplicate using a 7×7 dose matrix block in 1536 well format with a cell proliferation readout as described in the Assay section infra.\nAll synergy calculations were performed using CHALICE software package from Zalicus and potential synergistic interactions between compound combinations were assessed using the Excess Inhibition 2D matrix according to the Loewe additivity model and were reported as synergy score (Table 10) (Lehar et al). Strongly synergistic combination were identified as having both (1) a synergy score greater than 2, a synergy score that is twice as large as the background (non-synergy) model would predict, and (2) a maximum efficacy of >100, a value roughly equivalent to stasis, as determined from the growth inhibition calculation.\nCell viability were determined by measuring cellular ATP content using the CellTiter-Glo® (CTG) luminescent cell viability assay (Promega). […] Reduced and enhanced luminescent signal values (responses) were calculated relative to untreated (control) cells, and the calculated signal value proportional to the cell viability.\nSynergistic combinations were identified based on the Loewe Addivity Model. […]"}, "[6]": {"system": "NB1643 (R1275Q) human neuroblastoma cells", "experiment": "ApoTox-Glo Triplex assay, viability and caspase 3/7 apoptosis", "assay_type": "cell-based", "settings": "72 hours, 1/4 to 4 times IC50, equipotent ratio", "protocol": "The effect of treatment with the combinations of the invention on cell viability and apoptosis were evaluated in three human neuroblastoma cell lines: NB1643 (R1275Q), SH-SY5Y (F1174L) and EBC1 (WT) using the ApoTox-Glo Triplex assay. For confirmation, the treatment effect on cell viability was also evaluated in NB1643 (R1275Q) using the CellTitre-Glo (CTG) Luminescent Cell Viability assay. The assays were described, infra.\nThe test mixtures were evaluated by 72 hours after dosing, and the results were plotted in FIGS. 11A-C, 12A-C, 13A-C and 14A-C.\nIn vitro cell viability and Caspase-Glo 3/7 were simultaneously assayed using the ApoTox-Glo Triplex Assay (Promega, Calif.) in three neuroblastoma cell lines. […] After 72 hours of drug exposure, the fluorogenic substrate GF-AFC was added. The test mixture was incubated for 10 minutes and AFC fluorescence was measured at 380-400nm excitation and 505 nm emission.\nFollowing measurement of live cell fluorescence, a luminogenic Caspase-Glo 3/7 substrate and luciferase was added to the same wells. Luminescence was measured after a 30 minutes incubation period. Luciferin is released following cleavage of the substrate by caspase-3/7, and thereby the luminescent signal is proportional to caspase activity."}, "[7]": {"system": "SKNFI neuroblastoma cells (WT)", "experiment": "xCELLigence in vitro growth inhibition (IC50)", "assay_type": "cell-based", "settings": "Homo sapiens, SK-N-FI, 72 hours, single agent", "description": "as §1, §2"}, "[8]": {"system": "SKBE2C neuroblastoma cells (WT)", "experiment": "xCELLigence in vitro growth inhibition (IC50, Dm)", "assay_type": "cell-based", "settings": "Homo sapiens, Neuroblastoma cell, single agent", "description": "as §1, §2, §3, §4"}, "[9]": {"settings": "read-out: Dm (median-effect dose)"}},
  "note": "Where two headings read alike, the source gives them in different places.",
  "data": [
    {"smiles": "Cc1cc(Nc2ncc(Cl)c(Nc3ccccc3S(=O)(=O)C(C)C)n2)c(OC(C)C)cc1C1CCNCC1", "note": "[Compound A1, 5-chloro-N2-(2-isopropoxy-5-methyl-4-(piperidin-4-yl)phenyl)-N4-[2-(propane-2-sulfonyl)-phenyl]-pyrimidine-2,4-diamine]", "values": [
      {"measurement": "Survival of the mice / deaths", "setting": "[1]", "value": "euthanized due to the size of their tumor"},
      {"measurement": "Tumor volume / tumor growth", "setting": "[1]", "value": "only a slight tumor growth delay compared to vehicle control"},
      {"measurement": "IC50", "setting": "[2]", "value": 2150, "unit": "nM"},
      {"measurement": "IC50", "setting": "[3]; 72 hours, read-out: IC50", "value": 963, "unit": "nM"},
      {"measurement": "IC50", "setting": "[3]; [9]", "value": 1500, "unit": "nM"},
      {"measurement": "IC50", "setting": "[4]; 72 hours, read-out: IC50", "value": 1920, "unit": "nM"},
      {"measurement": "IC50", "setting": "[4]; [9]", "value": 1660, "unit": "nM"},
      {"measurement": "Synergy score (Mean)", "setting": "[5]", "value": 1.231},
      {"measurement": "Max Combo Effect", "setting": "[5]", "value": 151.1},
      {"measurement": "Cell viability (cell death) and apoptosis", "setting": "[6]", "value": "effective in causing cell death and apoptosis"},
      {"measurement": "IC50", "setting": "[7]", "value": 3480, "unit": "nM"},
      {"measurement": "IC50", "setting": "[8]; 72 hours, read-out: IC50", "value": 603, "unit": "nM"},
      {"measurement": "IC50", "setting": "[8]; [9]", "value": 350, "unit": "nM"}
    ]},
    {"smiles": "CN(C)C(=O)c1cc2cnc(Nc3ccc(N4CCNCC4)cn3)nc2n1C1CCCC1", "note": "[Compound B, 7-cyclopentyl-N,N-dimethyl-2-((5-(piperazin-1-yl)pyridin-2-yl)amino)-7H-pyrrolo[2,3-d]pyrimidine-6-carboxamide]", "values": [
      {"measurement": "Survival of the mice / deaths", "setting": "[1]", "value": "one of the mice died on day 14"},
      {"measurement": "Tumor volume / tumor growth", "setting": "[1]", "value": "slower tumor growth"},
      {"measurement": "IC50", "setting": "[2]", "value": 4720, "unit": "nM"},
      {"measurement": "IC50", "setting": "[3]; 72 hours, read-out: IC50", "value": 111, "unit": "nM"},
      {"measurement": "IC50", "setting": "[3]; [9]", "value": 1500, "unit": "nM"},
      {"measurement": "IC50", "setting": "[4]; 72 hours, read-out: IC50", "value": 328, "unit": "nM"},
      {"measurement": "IC50", "setting": "[4]; [9]", "value": 1260, "unit": "nM"},
      {"measurement": "Synergy score (Mean)", "setting": "[5]", "value": 0.929},
      {"measurement": "Max Combo Effect", "setting": "[5]", "value": 76.4},
      {"measurement": "Cell viability (cell death) and apoptosis", "setting": "[6]", "value": "only slightly effective"},
      {"measurement": "IC50", "setting": "[7]; unit in cell", "value": "> 6000", "unit": "nM"},
      {"measurement": "IC50", "setting": "[8]; 72 hours, read-out: IC50", "value": 146, "unit": "nM"},
      {"measurement": "IC50", "setting": "[8]; [9]", "value": 446, "unit": "nM"}
    ]}
  ]
}
